Measurements from PMC5218480 (PLoS ONE, 2017).

Tested on: MV-4-11 cells
Assay: Gene expression microarray analysis (Affymetrix PrimeView) and GSEA
Type: cell-based, human
Set-up: RFU PODN (11730768_x_at) / Fold change /veh PODN (11730768_x_at) / RFU LINC00158 (11744669_a_at) / Fold change /veh LINC00158 (11744669_a_at) / RFU DUSP10 (11751237_a_at) / Fold change /veh DUSP10 (11751237_a_at) / RFU ID3 (11757404_x_at) / Fold change /veh ID3 (11757404_x_at) / RFU PLEKHG5 (11737974_s_at) / Fold change /veh PLEKHG5 (11737974_s_at) / RFU LRRC4B (11730491_at) / Fold change /veh LRRC4B (11730491_at) / RFU GIMAP4 (11747438_a_at) / Fold change /veh GIMAP4 (11747438_a_at) / RFU KRT8 (11758183_x_at) / Fold change /veh KRT8 (11758183_x_at) / RFU CNN1 (11734310_a_at) / Fold change /veh CNN1 (11734310_a_at) / RFU VPS37D (11726825_at) / Fold change /veh VPS37D (11726825_at) / RFU C10orf10 (11716522_x_at) / Fold change /veh C10orf10 (11716522_x_at) / RFU KIR2DL2 /// KIR2DL4 /// KIR2DL5A /// KIR2DL5B /// KIR2DS1 /// KIR2DS2 /// KIR2DS3 /// KIR2DS4 /// KIR3DL3 /// KIR3DL3 /// KIR3DS1 (11738374_at) / Fold change /veh KIR2DL2 /// KIR2DL4 /// KIR2DL5A /// KIR2DL5B /// KIR2DS1 /// KIR2DS2 /// KIR2DS3 /// KIR2DS4 /// KIR3DL3 /// KIR3DL3 /// KIR3DS1 (11738374_at) / RFU C1QL1 (11718748_at) / Fold change /veh C1QL1 (11718748_at) / RFU TMPRSS4 (11747572_a_at) / Fold change /veh TMPRSS4 (11747572_a_at) / RFU HAMP (11756126_x_at) / Fold change /veh HAMP (11756126_x_at) / RFU RNFT2 (11725882_a_at) / Fold change /veh RNFT2 (11725882_a_at) / RFU NR4A2 (11747474_a_at) / Fold change /veh NR4A2 (11747474_a_at) / RFU ABCC12 (11746883_a_at) / Fold change /veh ABCC12 (11746883_a_at) / RFU TMEM136 (11760407_x_at) / Fold change /veh TMEM136 (11760407_x_at) / RFU CLDN22 /// WWC2 (11732394_at) / Fold change /veh CLDN22 /// WWC2 (11732394_at) / RFU HLA-DPB1 (11760878_x_at) / Fold change /veh HLA-DPB1 (11760878_x_at) / RFU SPINT1 (11716480_a_at) / Fold change /veh SPINT1 (11716480_a_at) / RFU GAP43 (11754022_s_at) / Fold change /veh GAP43 (11754022_s_at) / RFU A4GNT (11735810_at) / Fold change /veh A4GNT (11735810_at) / RFU PRB3 (11715151_x_at) / Fold change /veh PRB3 (11715151_x_at) / RFU TUBB4B (11761932_at) / Fold change /veh TUBB4B (11761932_at) / RFU CAPN14 (11732068_a_at) / Fold change /veh CAPN14 (11732068_a_at) / RFU TMCC2 (11721928_a_at) / Fold change /veh TMCC2 (11721928_a_at) / RFU IRGQ (11745062_a_at) / Fold change /veh IRGQ (11745062_a_at) / RFU FAM174B (11720279_a_at) / Fold change /veh FAM174B (11720279_a_at) / RFU TMPRSS4 (11748680_a_at) / Fold change /veh TMPRSS4 (11748680_a_at) / RFU FAM212B (11763350_a_at) / Fold change /veh FAM212B (11763350_a_at) / RFU PLEKHG5 (11743358_a_at) / Fold change /veh PLEKHG5 (11743358_a_at) / RFU ZSCAN30 (11745921_a_at) / Fold change /veh ZSCAN30 (11745921_a_at) / RFU CMKLR1 (11741424_a_at) / Fold change /veh CMKLR1 (11741424_a_at) / RFU LOC101060620 /// MAPK8IP1 (11723275_at) / Fold change /veh LOC101060620 /// MAPK8IP1 (11723275_at) / RFU SPTSSB (11747773_x_at) / Fold change /veh SPTSSB (11747773_x_at) / RFU PRSS12 (11739890_at) / Fold change /veh PRSS12 (11739890_at) / RFU BIN1 (11741810_x_at) / Fold change /veh BIN1 (11741810_x_at) / RFU WNT11 (11732464_a_at) / Fold change /veh WNT11 (11732464_a_at) / RFU C10orf10 (11716521_a_at) / Fold change /veh C10orf10 (11716521_a_at) / RFU C5orf56 (11738089_at) / Fold change /veh C5orf56 (11738089_at) / RFU CYB561 (11721691_x_at) / Fold change /veh CYB561 (11721691_x_at) / RFU ANKRD19P (11752326_a_at) / Fold change /veh ANKRD19P (11752326_a_at) / RFU OR2T12 /// OR2T33 /// OR2T8 (11738714_s_at) / Fold change /veh OR2T12 /// OR2T33 /// OR2T8 (11738714_s_at) / RFU VCAN (11748164_a_at) / Fold change /veh VCAN (11748164_a_at) / RFU JSRP1 (11732532_at) / Fold change /veh JSRP1 (11732532_at) / RFU KRTAP10-11 (11738290_x_at) / Fold change /veh KRTAP10-11 (11738290_x_at) / RFU MYO3A (11730013_a_at) / Fold change /veh MYO3A (11730013_a_at) / RFU EBF3 (11725865_a_at) / Fold change /veh EBF3 (11725865_a_at) / RFU CAMK2N1 (11719241_x_at) / Fold change /veh CAMK2N1 (11719241_x_at) / RFU C5orf56 (11738088_a_at) / Fold change /veh C5orf56 (11738088_a_at) / RFU OLFML3 (11715873_a_at) / Fold change /veh OLFML3 (11715873_a_at) / RFU LOC100653217 /// NTM (11731650_a_at) / Fold change /veh LOC100653217 /// NTM (11731650_a_at) / RFU MAPK11 (11762145_a_at) / Fold change /veh MAPK11 (11762145_a_at) / RFU FIZ1 (11724087_x_at) / Fold change /veh FIZ1 (11724087_x_at) / RFU OASL (11726364_x_at) / Fold change /veh OASL (11726364_x_at) / RFU SOX15 (11748057_x_at) / Fold change /veh SOX15 (11748057_x_at) / RFU CD79A (11719716_a_at) / Fold change /veh CD79A (11719716_a_at) / RFU HIST1H1D (11736915_at) / Fold change /veh HIST1H1D (11736915_at) / RFU CASKIN2 (11723855_a_at) / Fold change /veh CASKIN2 (11723855_a_at) / RFU LOC730098 (11760151_x_at) / Fold change /veh LOC730098 (11760151_x_at) / RFU OR4N2 (11742367_at) / Fold change /veh OR4N2 (11742367_at) / RFU PRRT2 (11749266_a_at) / Fold change /veh PRRT2 (11749266_a_at) / RFU SNX32 (11753110_a_at) / Fold change /veh SNX32 (11753110_a_at) / RFU CDHR5 (11726645_a_at) / Fold change /veh CDHR5 (11726645_a_at) / RFU RCAN1 (11760418_a_at) / Fold change /veh RCAN1 (11760418_a_at) / RFU FAM167A (11723789_a_at) / Fold change /veh FAM167A (11723789_a_at) / RFU FAM26E (11764081_at) / Fold change /veh FAM26E (11764081_at) / RFU ISYNA1 (11749810_s_at) / Fold change /veh ISYNA1 (11749810_s_at) / RFU ACY1 (11761880_at) / Fold change /veh ACY1 (11761880_at) / RFU 11764098_at / Fold change /veh 11764098_at / RFU SAMD14 (11745864_x_at) / Fold change /veh SAMD14 (11745864_x_at) / RFU NPB (11741838_a_at) / Fold change /veh NPB (11741838_a_at) / RFU TMPRSS6 (11731388_a_at) / Fold change /veh TMPRSS6 (11731388_a_at) / RFU KRTAP10-2 (11738614_at) / Fold change /veh KRTAP10-2 (11738614_at) / RFU ARHGAP8 /// PRR5-ARHGAP8 (11727945_x_at) / Fold change /veh ARHGAP8 /// PRR5-ARHGAP8 (11727945_x_at) / RFU KRTAP5-7 /// NADSYN1 (11734609_at) / Fold change /veh KRTAP5-7 /// NADSYN1 (11734609_at) / RFU RASL12 (11751679_a_at) / Fold change /veh RASL12 (11751679_a_at) / RFU CDKN2B (11736163_a_at) / Fold change /veh CDKN2B (11736163_a_at) / RFU PRF1 (11729649_at) / Fold change /veh PRF1 (11729649_at) / RFU, ZNF638 /// ZNF638-IT1 / Fold change vs veh, ZNF638 /// ZNF638-IT1 / RFU, PANK3 / Fold change vs veh, PANK3 / RFU, SH3YL1 / Fold change vs veh, SH3YL1 / RFU, ZEB2 / Fold change vs veh, ZEB2 / RFU, NRIP1 / Fold change vs veh, NRIP1 / RFU, PTTG1IP / Fold change vs veh, PTTG1IP / RFU, CAPN2 / Fold change vs veh, CAPN2 / RFU, MED14 / Fold change vs veh, MED14 / RFU, SNORA58 / Fold change vs veh, SNORA58 / RFU, C1orf63 / Fold change vs veh, C1orf63 / RFU, LRRFIP1 / Fold change vs veh, LRRFIP1 / RFU, NDUFAF7 / Fold change vs veh, NDUFAF7 / RFU, SLC12A2 / Fold change vs veh, SLC12A2 / RFU, IBTK / Fold change vs veh, IBTK / RFU, ESF1 / Fold change vs veh, ESF1 / Fold change vs veh, TMEM50B / RFU, TAOK1 / Fold change vs veh, TAOK1 / RFU, ACBD3 / Fold change vs veh, ACBD3 / RFU, TMA16 / Fold change vs veh, TMA16 / RFU, RWDD3 / Fold change vs veh, RWDD3 / RFU, BCAT1 / Fold change vs veh, BCAT1 / RFU, EDEM3 / Fold change vs veh, EDEM3 / RFU, TMEM33 / Fold change vs veh, TMEM33 / RFU, WDR75 / Fold change vs veh, WDR75 / RFU, AHCTF1 / Fold change vs veh, AHCTF1 / RFU, TFRC / Fold change vs veh, TFRC / RFU, ZDHHC17 / Fold change vs veh, ZDHHC17 / RFU, NOM1 / Fold change vs veh, NOM1 / RFU, ARL8B / Fold change vs veh, ARL8B / RFU, ZBTB11 / Fold change vs veh, ZBTB11 / RFU, TAMM41 / Fold change vs veh, TAMM41 / RFU, KIAA1704 /// LOC100996395 / Fold change vs veh, KIAA1704 /// LOC100996395 / RFU, ING1 / Fold change vs veh, ING1 / RFU, TRMT61B / Fold change vs veh, TRMT61B / RFU, FUBP3 / Fold change vs veh, FUBP3 / RFU, TP53 / Fold change vs veh, TP53 / RFU, TNKS2 / Fold change vs veh, TNKS2 / RFU, ZFP14 / Fold change vs veh, ZFP14 / RFU, ACTR2 / Fold change vs veh, ACTR2 / RFU, PPP3R1 / Fold change vs veh, PPP3R1 / RFU, PIK3R1 / Fold change vs veh, PIK3R1 / RFU, HNRNPA1 / Fold change vs veh, HNRNPA1 / RFU, RNF170 / Fold change vs veh, RNF170 / RFU, ZNF28 / Fold change vs veh, ZNF28 / RFU, RNGTT / Fold change vs veh, RNGTT / RFU, OGT / Fold change vs veh, OGT / RFU, BRD1 / Fold change vs veh, BRD1 / RFU, MARS / Fold change vs veh, MARS / RFU, ZNF655 / Fold change vs veh, ZNF655 / RFU, FAHD1 / Fold change vs veh, FAHD1 / RFU, BDP1 / Fold change vs veh, BDP1 / RFU, LRRCC1 / Fold change vs veh, LRRCC1 / RFU, ARID1A / Fold change vs veh, ARID1A / RFU, ZNF146 / Fold change vs veh, ZNF146 / RFU, ZNF330 / Fold change vs veh, ZNF330 / RFU, GPN3 / Fold change vs veh, GPN3 / RFU, C9orf123 / Fold change vs veh, C9orf123 / RFU, N4BP2L2 / Fold change vs veh, N4BP2L2 / RFU, ARFIP1 / Fold change vs veh, ARFIP1 / RFU, FAM179B / Fold change vs veh, FAM179B / RFU, BCL10 / Fold change vs veh, BCL10 / RFU, UHRF1BP1L / Fold change vs veh, UHRF1BP1L / RFU, BET1 / Fold change vs veh, BET1 / RFU, CNOT2 / Fold change vs veh, CNOT2 / RFU, ZNF268 / Fold change vs veh, ZNF268 / Fold change vs veh, ZNF507 / RFU, DGCR2 / Fold change vs veh, DGCR2 / RFU, WDSUB1 / Fold change vs veh, WDSUB1 / Fold change vs veh, HSP90B1 /// MIR3652 / RFU, ADSS / Fold change vs veh, ADSS / RFU, GK / Fold change vs veh, GK / RFU, ZNF148 / Fold change vs veh, ZNF148 / RFU, TAF9 / Fold change vs veh, TAF9 / RFU, SLC1A5 / Fold change vs veh, SLC1A5 / RFU, SLMO2 / Fold change vs veh, SLMO2 / RFU, ABCC4 / Fold change vs veh, ABCC4 / RFU, LOC101060439 /// RAP1B / Fold change vs veh, LOC101060439 /// RAP1B / RFU, RFX7 / Fold change vs veh, RFX7 / RFU, GTPBP10 / Fold change vs veh, GTPBP10 / RFU, CNEP1R1 / Fold change vs veh, CNEP1R1 / RFU, BIVM-ERCC5 /// ERCC5 / Fold change vs veh, BIVM-ERCC5 /// ERCC5 / RFU, ILF3 / Fold change vs veh, ILF3 / RFU 11762660_at / Fold change /veh 11762660_at / RFU VCAN (11757783_s_at) / Fold change /veh VCAN (11757783_s_at) / RFU DDX43 (11728927_at) / Fold change /veh DDX43 (11728927_at) / RFU KRT8 (11758188_x_at) / Fold change /veh KRT8 (11758188_x_at) / RFU NKD1 (11759106_at) / Fold change /veh NKD1 (11759106_at) / RFU SRD5A1 (11742802_a_at) / Fold change /veh SRD5A1 (11742802_a_at) / RFU TPSAB1 /// TPSB2 (11721975_s_at) / Fold change /veh TPSAB1 /// TPSB2 (11721975_s_at) / RFU GSTM3 (11746129_a_at) / Fold change /veh GSTM3 (11746129_a_at) / RFU IL23R (11737362_x_at) / Fold change /veh IL23R (11737362_x_at) / RFU TMEM51 (11727254_a_at) / Fold change /veh TMEM51 (11727254_a_at) / RFU PIWIL2 (11732686_x_at) / Fold change /veh PIWIL2 (11732686_x_at) / RFU ORM1 (11744905_x_at) / Fold change /veh ORM1 (11744905_x_at) / RFU CCDC152 (11743942_at) / Fold change /veh CCDC152 (11743942_at) / RFU ECM1 (11717891_a_at) / Fold change /veh ECM1 (11717891_a_at) / RFU IL23R (11748794_a_at) / Fold change /veh IL23R (11748794_a_at) / RFU TNFAIP8L3 (11732012_x_at) / Fold change /veh TNFAIP8L3 (11732012_x_at) / RFU MBOAT4 (11741988_at) / Fold change /veh MBOAT4 (11741988_at) / RFU 11764193_at / Fold change /veh 11764193_at / RFU TMEM53 (11763286_at) / Fold change /veh TMEM53 (11763286_at) / RFU MAGEB2 (11727129_at) / Fold change /veh MAGEB2 (11727129_at) / RFU TMEM200A (11744735_a_at) / Fold change /veh TMEM200A (11744735_a_at) / RFU CCDC152 (11751479_a_at) / Fold change /veh CCDC152 (11751479_a_at) / RFU FAM211A (11726209_a_at) / Fold change /veh FAM211A (11726209_a_at) / RFU RGS16 (11746705_a_at) / Fold change /veh RGS16 (11746705_a_at) / RFU VCAN (11755009_s_at) / Fold change /veh VCAN (11755009_s_at) / RFU RHOB (11743442_s_at) / Fold change /veh RHOB (11743442_s_at) / RFU RGS16 (11720943_a_at) / Fold change /veh RGS16 (11720943_a_at) / RFU RGS16 (11720944_at) / Fold change /veh RGS16 (11720944_at) / RFU, VPS4B / Fold change vs veh, VPS4B / RFU, CREB1 / Fold change vs veh, CREB1 / RFU, DNAJC13 / Fold change vs veh, DNAJC13 / RFU, GNAQ / Fold change vs veh, GNAQ / RFU, CDK5R1 / Fold change vs veh, CDK5R1 / RFU, ZRANB3 / Fold change vs veh, ZRANB3 / RFU, CUL4A / Fold change vs veh, CUL4A / RFU, CCNY / Fold change vs veh, CCNY / RFU, UFL1 / Fold change vs veh, UFL1 / RFU, COG3 / Fold change vs veh, COG3 / RFU, DIAPH2 / Fold change vs veh, DIAPH2 / RFU, SKA2 / Fold change vs veh, SKA2 / RFU, AFF3 / Fold change vs veh, AFF3 / RFU, LMF1 / Fold change vs veh, LMF1 / RFU, IPO11 / Fold change vs veh, IPO11 / RFU, DFFB / Fold change vs veh, DFFB / RFU, FOXP1 / Fold change vs veh, FOXP1 / RFU, CARD8 / Fold change vs veh, CARD8 / RFU, STRN3 / Fold change vs veh, STRN3 / RFU, ADK / Fold change vs veh, ADK / RFU, RASSF2 / Fold change vs veh, RASSF2 / RFU, WIPF1 / Fold change vs veh, WIPF1 / RFU, LARP1B / Fold change vs veh, LARP1B / RFU, RASA1 / Fold change vs veh, RASA1 / RFU, RB1 / Fold change vs veh, RB1 / RFU, PPFIA1 / Fold change vs veh, PPFIA1 / RFU, MAT2A / Fold change vs veh, MAT2A / RFU, CCT5 / Fold change vs veh, CCT5 / RFU, WDR92 / Fold change vs veh, WDR92 / RFU, CUX1 / Fold change vs veh, CUX1 / RFU, TTC7A / Fold change vs veh, TTC7A / RFU, TMEM135 / Fold change vs veh, TMEM135 / RFU, DEPTOR / Fold change vs veh, DEPTOR / RFU, CPM / Fold change vs veh, CPM / RFU, DNAJB6 / Fold change vs veh, DNAJB6 / RFU, CACNA2D3 / Fold change vs veh, CACNA2D3 / RFU, DTX4 / Fold change vs veh, DTX4 / RFU, TFCP2 / Fold change vs veh, TFCP2 / RFU, GMCL1 /// GMCL1P1 / Fold change vs veh, GMCL1 /// GMCL1P1 / RFU, AEBP2 / Fold change vs veh, AEBP2 / RFU, SNHG1 /// SNORD22 /// SNORD25 /// SNORD26 /// SNORD27 /// SNORD28 /// SNORD29 /// SNORD31 / Fold change vs veh, SNHG1 /// SNORD22 /// SNORD25 /// SNORD26 /// SNORD27 /// SNORD28 /// SNORD29 /// SNORD31 / Fold change (Aza/veh), C12orf56 (ProbeSet 11735607_a_at) / Fold change (ACY-1035/veh), C12orf56 (ProbeSet 11735607_a_at) / Fold change (Aza/veh), FGFR1OP (ProbeSet 11751329_s_at) / Fold change (ACY-1035/veh), FGFR1OP (ProbeSet 11751329_s_at) / Fold change (Aza/veh), VPS36 (ProbeSet 11739960_a_at) / Fold change (ACY-1035/veh), VPS36 (ProbeSet 11739960_a_at) / RFU SYPL1 (11715823_x_at) / Fold change /veh SYPL1 (11715823_x_at) / RFU IGFBP7 (11715501_s_at) / Fold change /veh IGFBP7 (11715501_s_at) / RFU REEP3 (11722064_at) / Fold change /veh REEP3 (11722064_at) / RFU IGLL1 (11728026_x_at) / Fold change /veh IGLL1 (11728026_x_at): dose or concentration left out as unconfirmed
Details: MV-4-11 cells, 48 hours

With Nc1ccc(-c2cccs2)cc1NC(=O)c1ccc2c(c1)cc(C1CC1)n2CCN1CCOCC1 [ACY-1035] the “Fold change /veh RHOB (11743442_s_at)” value was 1.20.
